Measured values published in US20070191426A1, “Derivatives of 3-aminocarbonylquinoline, pharmaceutical compositions containing them and processes and intermediates for their preparation” (priority 2003, published 2007).

Experiments:
PDE5 (human recombinant) = PDE5 (human recombinant) (Homo sapiens, UniProt O76074); assay: Inhibition of PDE5 activity: radioactive Scintillation Proximity Assay (SPA); type: biochemical; details: SPA assay (all Examples); read-out: PDE5 mean pIC50 (converted)
From the text: Human recombinant PDE5 is disclosed in K. Loughney et al., “Isolation and characterization of cDNAs encoding PDE5A, a human cGMP-binding, cGMP-specific 3′,5′-cyclic nucleotide phosphodiesterase”, Gene, 1998, 216, 139-147.
(§1) Inhibition of PDE3, PDE4B, PDE4D, PDE5 or PDE6 Activity: Radioactive Scintillation Proximity Assay (SPA)
(§2) The ability of compounds to inhibit catalytic activity at PDE4B or 4D (human recombinant), PDE3 (from bovine aorta) PDE5 (human recombinant) or PDE 6 (from bovine retina) was may be determined by Scintillation Proximity Assay (SPA) in 96-well format. Test compounds (preferably as a solution in DMSO, e.g. 2 microlitre (μl) volume) were preincubated at ambient temperature in Wallac Isoplates (code 1450-514) with PDE enzyme in 50 mM Tris-HCl buffer pH 7.5, 8.3 mM MgCl2, 1.7 mM EGTA, 0.05% (w/v) bovine serum albumin for 10-30 minutes. The enzyme concentration was adjusted so that control rates are linear over the assay incubation period. For the PDE3, PDE4B and PDE4D assays […] 3′,5′-cyclic phosphate (Amersham Pharmacia Biotech, code TRK.559 or Amersham Biosciences UK Ltd, Pollards Wood, Chalfont St Giles, Buckinghamshire HP8 4SP, UK) was added to give 0.05 μCi per well and ˜10 nM final concentration. For the PDE5 and PDE6 assays [8-^3H]guanosine 3′,5′-cyclic phosphate (Amersham Pharmacia Biotech , code TRK.392) was added to give 0.05 μCi per well and ˜36 nM final concentration. Plates e.g. containing approx. 100 μl volume of assay mixture were mixed on an orbital shaker for 5 minutes and incubated at ambient temperature for 1 hour. Phosphodiesterase SPA beads (Amersham Pharmacia Biotech, code RPNQ 0150) were added (˜1 mg per well) to terminate the assay. Plates were sealed and shaken and allowed to stand at ambient temperature for 35 minutes to 1 hour to allow the beads to settle. Bound radioactive product was measured using a WALLAC TRILUX 1450 MicroBeta scintillation counter. […] Curves were analyzed using ActivityBase and XLfit (ID Business Solutions Limited, 2 Ocean Court, Surrey Research Park, Guildford, Surrey GU2 7QB, United Kindgom). Results were expressed as pIC50 values.

[1] = molecular target: T1, PDE4B (human recombinant) (Homo sapiens, UniProt Q07343); assay: Inhibition of PDE4B activity: radioactive Scintillation Proximity Assay (SPA); type: biochemical; details: SPA assay (Examples 1 to 6); read-out: PDE4B mean pIC50 (converted)
T1 construct: made in house
From the text: Human recombinant PDE4B, in particular the 2B splice variant thereof (HSPDE4B2B), is disclosed in WO 94/20079 and also in M. M. McLaughlin et al., “A low Km, rolipram-sensitive, cAMP-specific phosphodiesterase from human brain: cloning and expression of cDNA, biochemical characterization of recombinant protein, and tissue distribution of mRNA”, J. Biol. Chem., 1993, 268, 6470-6476. For example, in Example 1 of WO 94/20079, human recombinant PDE4B is described as being expressed in the PDE-deficient yeast Saccharomyces cerevisiae strain GL62, e.g. after induction by addition of 150 uM CuSO4, and 100,000×g supernatant fractions of yeast cell lysates are described for use in the harvesting of PDE4B enzyme.
as §1, §2

T1 sequence (Q07343 1-564 isoform Q07343-2): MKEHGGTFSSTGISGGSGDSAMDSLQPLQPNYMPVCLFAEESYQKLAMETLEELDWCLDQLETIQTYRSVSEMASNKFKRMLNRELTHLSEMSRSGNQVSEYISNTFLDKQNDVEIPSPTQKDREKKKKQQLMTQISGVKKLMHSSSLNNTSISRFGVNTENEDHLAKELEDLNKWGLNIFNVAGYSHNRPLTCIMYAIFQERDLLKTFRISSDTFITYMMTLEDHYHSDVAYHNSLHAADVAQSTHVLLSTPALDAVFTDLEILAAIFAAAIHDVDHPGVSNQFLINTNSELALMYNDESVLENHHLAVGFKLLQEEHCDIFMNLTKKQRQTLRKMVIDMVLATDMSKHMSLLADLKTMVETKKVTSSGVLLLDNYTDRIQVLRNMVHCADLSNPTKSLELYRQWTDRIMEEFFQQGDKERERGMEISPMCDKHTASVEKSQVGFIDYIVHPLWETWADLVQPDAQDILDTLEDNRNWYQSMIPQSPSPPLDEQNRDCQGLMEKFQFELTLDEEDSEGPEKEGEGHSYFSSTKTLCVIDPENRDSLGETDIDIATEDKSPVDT

Structure (SMILES) | IC50 (PDE5 (human recombinant)) [nM] | IC50 [1] [nM]
COc1cccc(Nc2c(C(N)=O)cnc3ccc(C(=O)Nc4ccccc4)cc23)c1 [Example 2, 4-{[3-(methyloxy)phenyl]amino}-N^6-phenyl-3,6-quinolinedicarboxamide] | > 31600 | 25.1
COc1cccc(Nc2c(C(N)=O)cnc3ccc(C(=O)N4CCOCC4)cc23)c1 [Example 1, 4-{[3-(Methyloxy)phenyl]amino}-6-(4-morpholinylcarbonyl)-3-quinolinecarboxamide] | > 31600 | 10
COc1cccc(Nc2c(C(N)=O)cnc3ccc(C(=O)NC(C)(C)C)cc23)c1 [Example 3] | > 31600 | 39.8
CNC(=O)c1ccc2ncc(C(N)=O)c(Nc3cccc(OC)c3)c2c1 [Example 6] | > 31600 | 501
